# Laboratory results from patent publication US20170122958A1, “Enzymes Functional Probes” (University of Dundee, priority 2013, published 2017).
# Experiments:
# [1] = test system: WT and mutants (Leu to Ala, Leu to Val and Leu to Ile) of Brd2(2); test: ITC of compound into protein (FIG. 16); format: binding, human; conditions: 250 μM compound into 25 μM protein; result in words
# Protocol: To investigate the utility of the new compounds further, the inventors performed isothermal titration experiments by titrating 250 μM compound solutions (AL, ME-Am1, ET-Am1, ME-Am2, ET-Am2, 9-ME, 9-ET, 9-ME-Am1 and 9-ET-Am1) 25 μM protein solutions (WT and mutants (Leu to Ala, Leu to Val and Leu to Ile) of Brd2(2)).
# ITC experiments were carried out on a ITC200 instrument from MicroCal™ Experiments were conducted at 3 different temperatures 15° C., 25° C. and 30° C., while stirring at 1000 rpm. Buffers of proteins, peptide and compounds were matched to 20 mM HEPES pH 7.5 at 25° C. and 100 mM NaCl. Frozen protein was buffer exchanged as described for the DSF experiments. Each titration comprised 1 initial injection of 0.4 μl lasting 0.8 s, followed by 19 injections of 2 μl lasting 4 s each at 2 min intervals. The initial injection was discarded during data analysis. Standard and reverse titrations were conducted depending on the binding partners.
# All the data was fitted to a single binding site model using the Microcal LLC ITC200 Origin software provided by the manufacturer to yield enthalpies of binding (ΔH) and binding constants (Kas). Further thermodynamic parameters were calculated from these values (changes in entropy ΔS, changes in free energy AG and dissociation constants (Kds)).
# Brd2(1) = target: T1, Brd2(1) (Homo sapiens, UniProt P25440); test: DSF thermal shift; format: binding; conditions: wild type
# T1 construct: Plasmids of the eight single BET bromodomain constructs Brd2(1), Brd2(2), Brd3(1), Brd3(2); His6 (N); made in house; host or cells: E. coli BL21(DE3)
# T1 sequence (P25440 74-180 limits assumed): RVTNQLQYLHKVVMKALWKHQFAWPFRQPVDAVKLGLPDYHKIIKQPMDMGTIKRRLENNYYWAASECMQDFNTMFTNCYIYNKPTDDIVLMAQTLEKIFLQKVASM
# Protocol: (§1) DSF assays were performed on a LightCycler®480 from Roche or a Mx3005P Real Time PCR machine from Stratagene. […] SYPRO®Orange from Invitrogen Molecular Probes® was used as a reporter dye to monitor the denaturing process of the proteins. Samples were assayed on a 96-well plate with final protein concentrations of 2 μM for the LightCycler®480 and 6 μM for Mx3005P. Compounds were added at a final concentration of 10 μM for the LightCycler®480 and 30 μM for Mx3005P, while the tetra acetylated histone peptide was added to a final concentration of 100 μM and 300 μM respectively. […] The temperature was raised with a step of 0.6° C. per minute from 37° C. to 95° C. with the LightCycler®480 collecting 39 measurements per ° C., and 1° C. per minute from 25° C. to 95° C. with Mx3005P, collecting fluorescence readings at the end of each interval. Each sample was run in triplicates.
# (§2) Collected data was analysed by IGOR Pro 6, a scientific software tool from Wave Metrics, Inc. Analysis was done following the recommendations of Niesen et al.. Fluorescence intensity was plotted as a function of temperature, generating a sigmoidal curve described by a two-state transition from folded to unfolded protein. Curves were fitted by the following sigmoidal equation: […]
# (§3) A1 and A2 are the values of minimum and maximum intensities, respectively, x0 is the inflection point and dx is the rate. Fitted curves were differentiated in IGOR Pro 6 and the maximum of the first derivative was identified using the same program. These values correspond to the inflection points of the transition curves and thus to the melting temperatures of the proteins (Tm).
# Brd2(2) = target: T2, Brd2(2) (Homo sapiens, UniProt P25440); test: DSF thermal shift; format: binding; conditions: wild type
# T2 construct: Plasmids of the eight single BET bromodomain constructs Brd2(1), Brd2(2), Brd3(1), Brd3(2); His6 (N); made in house; host or cells: E. coli BL21(DE3)
# T2 sequence (P25440 344-453 limits assumed): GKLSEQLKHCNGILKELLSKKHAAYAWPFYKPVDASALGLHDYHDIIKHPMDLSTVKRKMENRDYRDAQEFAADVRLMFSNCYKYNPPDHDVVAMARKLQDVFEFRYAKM
# Protocol: as §1, §2, §3
# Brd2(2)*(Met438-Ala) = target: T3, Brd2(2)*(Met438-Ala) (Homo sapiens, UniProt P25440, M438A); test: DSF thermal shift; format: binding; conditions: mutant
# T3 construct: Plasmids of the eight single BET bromodomain constructs Brd2(1), Brd2(2), Brd3(1), Brd3(2); His6 (N); made in house; host or cells: E. coli BL21(DE3)
# T3 sequence (P25440 344-453 M438A limits assumed): as the sequence (P25440 344-453 limits assumed) above, with M95A counted along it
# Protocol: (§4) DSF assays were performed on a LightCycler®480 from Roche or a Mx3005P Real Time PCR machine from Stratagene. Prior to DSF assays, frozen proteins were buffer exchanged using Vivaspin®6 concentrators with a 10 kDa cutoff on a Centrifuge 5430 from Eppendorf at a speed of 6000×g to remove glycerol and to buffer the proteins in 20 mM HEPES pH 7.5 at 25° C. and 100 mM NaCl. SYPRO®Orange from Invitrogen Molecular Probes® was used as a reporter dye to monitor the denaturing process of the proteins. Samples were assayed on a 96-well plate with final protein concentrations of 2 μM for the LightCycler®480 and 6 μM for Mx3005P. Compounds were added at a final concentration of 10 μM for the LightCycler®480 and 30 μM for Mx3005P, while the tetra acetylated histone peptide was added to a final concentration of 100 μM and 300 μM respectively. […] The temperature was raised with a step of 0.6° C. per minute from 37° C. to 95° C. with the LightCycler®480 collecting 39 measurements per ° C., and 1° C. per minute from 25° C. to 95° C. with Mx3005P, collecting fluorescence readings at the end of each interval. Each sample was run in triplicates.
# as §2, §3
# Brd2(2)*(Met438-Leu) = target: T4, Brd2(2)*(Met438-Leu) (Homo sapiens, UniProt P25440, M438L); test: DSF thermal shift; format: binding; conditions: mutant
# T4 construct: Plasmids of the eight single BET bromodomain constructs Brd2(1), Brd2(2), Brd3(1), Brd3(2); His6 (N); made in house; host or cells: E. coli BL21(DE3)
# T4 sequence (P25440 344-453 M438L limits assumed): as the sequence (P25440 344-453 limits assumed) above, with M95L counted along it
# Protocol: as §4, §2, §3
# Brd2(1)*(Met165-Leu) = target: T5, Brd2(1)*(Met165-Leu) (Homo sapiens, UniProt P25440, M165L); test: DSF thermal shift; format: binding; conditions: mutant
# T5 construct: Plasmids of the eight single BET bromodomain constructs Brd2(1), Brd2(2), Brd3(1), Brd3(2); His6 (N); made in house; host or cells: E. coli BL21(DE3)
# T5 sequence (P25440 74-180 M165L limits assumed): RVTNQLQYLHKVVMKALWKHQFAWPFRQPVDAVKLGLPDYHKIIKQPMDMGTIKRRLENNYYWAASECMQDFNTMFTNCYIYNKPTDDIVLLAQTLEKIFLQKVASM
# Protocol: as §4, §2, §3
# Brd2(1)*(Met165Ala) = Brd2(1)*(Met165Ala) (Homo sapiens, UniProt P25440, M165A); test: DSF thermal shift; format: binding; design: Plasmids of the eight single BET bromodomain constructs Brd2(1), Brd2(2), Brd3(1), Brd3(2); His6 (N); made in house; host or cells: E. coli BL21(DE3); conditions: mutant
# Sequence of Brd2(1)*(Met165Ala) (P25440 74-180 M165A limits assumed): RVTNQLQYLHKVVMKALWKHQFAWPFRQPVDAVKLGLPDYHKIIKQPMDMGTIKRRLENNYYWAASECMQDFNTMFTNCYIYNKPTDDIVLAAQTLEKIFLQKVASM
# Protocol: as §4, §2, §3
# Brd2(2)*(Trp370His) = target: T6, Brd2(2)*(Trp370His) (Homo sapiens, UniProt P25440, W370H); test: DSF thermal shift; format: binding; conditions: mutant
# T6 construct: Plasmids of the eight single BET bromodomain constructs Brd2(1), Brd2(2), Brd3(1), Brd3(2); His6 (N); made in house; host or cells: E. coli BL21(DE3)
# T6 sequence (P25440 344-453 W370H limits assumed): as the sequence (P25440 344-453 limits assumed) above, with W27H counted along it
# Protocol: as §1, §2, §3
# Brd2(1)*(Trp097Phe) = target: T7, Brd2(1)*(Trp097Phe) (Homo sapiens, UniProt P25440, W97F); test: DSF thermal shift; format: binding; conditions: mutant
# T7 construct: Plasmids of the eight single BET bromodomain constructs Brd2(1), Brd2(2), Brd3(1), Brd3(2); His6 (N); made in house; host or cells: E. coli BL21(DE3)
# T7 sequence (P25440 74-180 W97F limits assumed): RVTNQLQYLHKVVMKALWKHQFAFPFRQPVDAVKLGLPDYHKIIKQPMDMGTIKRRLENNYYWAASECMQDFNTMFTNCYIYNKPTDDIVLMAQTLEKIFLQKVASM
# Protocol: as §1, §2, §3
# Brd2(2)*(Trp370Phe) = target: T8, Brd2(2)*(Trp370Phe) (Homo sapiens, UniProt P25440, W370F); test: DSF thermal shift; format: binding; conditions: mutant
# T8 construct: Plasmids of the eight single BET bromodomain constructs Brd2(1), Brd2(2), Brd3(1), Brd3(2); His6 (N); made in house; host or cells: E. coli BL21(DE3)
# T8 sequence (P25440 344-453 W370F limits assumed): as the sequence (P25440 344-453 limits assumed) above, with W27F counted along it
# Protocol: as §1, §2, §3
# Brd2(1)*(Trp097His) = target: T9, Brd2(1)*(Trp097His) (Homo sapiens, UniProt P25440, W97H); test: DSF thermal shift; format: binding; conditions: mutant
# T9 construct: Plasmids of the eight single BET bromodomain constructs Brd2(1), Brd2(2), Brd3(1), Brd3(2); His6 (N); made in house; host or cells: E. coli BL21(DE3)
# T9 sequence (P25440 74-180 W97H limits assumed): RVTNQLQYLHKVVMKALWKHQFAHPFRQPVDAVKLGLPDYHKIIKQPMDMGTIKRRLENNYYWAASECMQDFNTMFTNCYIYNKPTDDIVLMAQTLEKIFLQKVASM
# Protocol: as §1, §2, §3
compound,measurement,setting,value
"C=CC[C@@H](C(=O)OC)[C@@H]1N=C(c2ccc(Cl)cc2)c2cc(OC)ccc2-n2c(C)nnc21 (racemic) [AL, (+−)methyl (R)-2-((S)-6-(4-chlorophenyl)-8-methoxy-1-methyl-4H-benzo[f][1,2,4]triazolo[4,3-a][1,4]diazepin-4-yl)pent-4-enoate]",Selectivity for Brd2(2) mutants relative to wild type by ITC (FIG. 16),[1],higher selectivity for the mutants relative to wild types
"CC[C@@H](C(=O)OC)[C@@H]1N=C(c2ccc(Cl)cc2)c2ccc(OC)cc2-n2c(C)nnc21 (racemic) [Compound 9-ET, (+−) methyl (R)-2-((S)-6-(4-chlorophenyl)-9-methoxy-1-methyl-4H-benzo[f][1,2,4]triazolo[4,3-a][1,4]diazepin-4-yl)butanoate]",Selectivity for Brd2(2) mutants relative to wild type by ITC (FIG. 16),[1],higher selectivity for the mutants relative to wild types
"COC(=O)[C@H](C)[C@@H]1N=C(c2ccc(Cl)cc2)c2ccc(OC)cc2-n2c(C)nnc21 (racemic) [Compound 9-ME, (+−) methyl (R)-2-((S)-6-(4-chlorophenyl)-9-methoxy-1-methyl-4H-benzo[f][1,2,4]triazolo[4,3-a][1,4]diazepin-4-yl)propanoate]",Selectivity for Brd2(2) mutants relative to wild type by ITC (FIG. 16),[1],higher selectivity for the mutants relative to wild types
"CCNC(=O)[C@H](C)[C@@H]1N=C(c2ccc(Cl)cc2)c2ccc(OC)cc2-n2c(C)nnc21 (racemic) [Compound 9-ME-Am1, (+−) (R)-2-((S)-6-(4-chlorophenyl)-9-methoxy-1-methyl-4H-benzo[f][1,2,4]triazolo[4,3-a][1,4]diazepin-4-yl)-N-ethylpropanamide]",Selectivity for Brd2(2) mutants relative to wild type by ITC (FIG. 16),[1],higher selectivity for the mutants relative to wild types
"CCNC(=O)[C@H](CC)[C@@H]1N=C(c2ccc(Cl)cc2)c2cc(OC)ccc2-n2c(C)nnc21 (racemic) [ET-Am1, (+−) (R)-2-((S)-6-(4-chlorophenyl)-8-methoxy-1-methyl-4H-benzo[f][1,2,4]triazolo[4,3-a][1,4]diazepin-4-yl)-N-ethylbutanamide]",Selectivity for Brd2(2) mutants relative to wild type by ITC (FIG. 16),[1],higher selectivity for the mutants relative to wild types
"CC[C@@H](C(=O)N(CC)CC)[C@@H]1N=C(c2ccc(Cl)cc2)c2cc(OC)ccc2-n2c(C)nnc21 (racemic) [ET-Am2, (+−) (R)-2-((S)-6-(4-chlorophenyl)-8-methoxy-1-methyl-4H-benzo[f][1,2,4]triazolo[4,3-a][1,4]diazepin-4-yl)-N,N-diethylbutanamide]",Selectivity for Brd2(2) mutants relative to wild type by ITC (FIG. 16),[1],higher selectivity for the mutants relative to wild types
"CCNC(=O)[C@H](C)[C@@H]1N=C(c2ccc(Cl)cc2)c2cc(OC)ccc2-n2c(C)nnc21 (racemic) [ME-Am1, (+−) (R)-2-((S)-6-(4-chlorophenyl)-8-methoxy-1-methyl-4H-benzo[f][1,2,4]triazolo[4,3-a][1,4]diazepin-4-yl)-N-ethylpropanamide]",Selectivity for Brd2(2) mutants relative to wild type by ITC (FIG. 16),[1],higher selectivity for the mutants relative to wild types
"CCN(CC)C(=O)[C@H](C)[C@@H]1N=C(c2ccc(Cl)cc2)c2cc(OC)ccc2-n2c(C)nnc21 (racemic) [ME-Am2, (+−) (R)-2-((S)-6-(4-chlorophenyl)-8-methoxy-1-methyl-4H-benzo[f][1,2,4]triazolo[4,3-a][1,4]diazepin-4-yl)-N,N-diethylpropanamide]",Selectivity for Brd2(2) mutants relative to wild type by ITC (FIG. 16),[1],higher selectivity for the mutants relative to wild types
"COc1ccc(S(=O)(=O)Nc2ccc3c(c2)CN(C)C(=O)N3)c(OC)c1 [Compound 54, 2,4-dimethoxy-N-(3-methyl-2-oxo-1,2,3,4-tetrahydroquinazolin-6-yl)benzenesulfonamide]",ΔTm Brd2(1),Brd2(1),2.4 ± 0.2 K
same,ΔTm Brd2(2),Brd2(2),1.6 ± 0.2 K
same,ΔTm Brd2(2)*(Met165-Ala),Brd2(2)*(Met438-Ala),2.3 ± 0.1 K
same,ΔTm Brd2(2)*(Met165-Leu),Brd2(2)*(Met438-Leu),2.4 ± 0.4 K
same,ΔTm Brd2(1)*(Met165-Leu),Brd2(1)*(Met165-Leu),2.7 ± 0.3 K
same,ΔTm Brd2(1)*(Met165-Ala),Brd2(1)*(Met165Ala),1.5 ± 0.2 K
"COc1ccccc1S(=O)(=O)Nc1ccc2c(c1)CN(C)C(=O)N2 [PFI-1, reference compound]",ΔTm Brd2(2)*(Tryp370-His),Brd2(2)*(Trp370His),1.8 ± 0.0 K
same,ΔTm Brd2(1),Brd2(1),4.5 ± 0.3 K
same,ΔTm Brd2(1)*(Tryp097-Phe),Brd2(1)*(Trp097Phe),2.6 ± 0.4 K
same,ΔTm Brd2(2),Brd2(2),4.5 ± 0.2 K
same,ΔTm Brd2(2)*(Tryp370-Phe),Brd2(2)*(Trp370Phe),2.9 ± 0.3 K
same,ΔTm Brd2(1)*(Tryp097-His),Brd2(1)*(Trp097His),1.9 ± 0.5 K
same,ΔTm Brd2(2)*(Met165-Ala),Brd2(2)*(Met438-Ala),1.7 ± 0.1 K
same,ΔTm Brd2(2)*(Met165-Leu),Brd2(2)*(Met438-Leu),2.1 ± 0.3 K
same,ΔTm Brd2(1)*(Met165-Leu),Brd2(1)*(Met165-Leu),1.3 ± 0.3 K
same,ΔTm Brd2(1)*(Met165-Ala),Brd2(1)*(Met165Ala),1.6 ± 0.1 K
